Where two headings read alike, the source gives them in different places. Marks after values point to notes of the source that are not given here.
Tests used:
[1] = target: T1, aromatic L-amino acid decarboxylase (AADC) (Rattus norvegicus, UniProt P14173); assay: Assay of AADC in rat tissues (brain, liver, kidney) under Vmax conditions; format: in vivo; conditions: 30 mg/kg
T1 construct: from tissue; host or cells: brain, liver and kidney of male Wistar rats
T1 sequence (P14173 1-480): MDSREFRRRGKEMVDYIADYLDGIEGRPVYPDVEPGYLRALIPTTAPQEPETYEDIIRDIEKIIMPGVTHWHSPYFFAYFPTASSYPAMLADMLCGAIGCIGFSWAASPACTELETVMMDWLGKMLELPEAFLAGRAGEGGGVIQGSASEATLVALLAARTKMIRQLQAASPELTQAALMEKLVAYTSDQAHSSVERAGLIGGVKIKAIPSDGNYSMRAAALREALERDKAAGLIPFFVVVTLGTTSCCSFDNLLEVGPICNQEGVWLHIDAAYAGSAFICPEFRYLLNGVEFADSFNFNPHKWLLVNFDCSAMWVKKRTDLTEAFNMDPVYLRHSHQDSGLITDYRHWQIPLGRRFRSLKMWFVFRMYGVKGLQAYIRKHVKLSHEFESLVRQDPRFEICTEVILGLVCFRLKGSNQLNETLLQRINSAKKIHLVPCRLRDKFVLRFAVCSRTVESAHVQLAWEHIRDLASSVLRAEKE
Method: Male Wistar rats weighing 170-280 g, kept two per cage under controlled environmental conditions (12 h light/dark cycle and room temperature 24° C.), were used in all experiments.
The reaction was stopped by the addition of 500 μl of 2 M perchloric acid and the preparations kept at 4° C. for 60 min. The samples were then centrifuged (200 g, 2 min. 4° C.) and 500 μl aliquots of the supernatant filtered on Spin-X filter tubes (Costar) were used for the assay of dopamine.
Since high doses of benserazide may result in inhibition of AADC in brain (Da Prada, et al., 1987, Eur.

[2] = Levels of L-DOPA, dopamine, DOPAC and HVA in rat brain and kidney; format: in vivo
Method: (§1) Male Wistar rats weighing 170-280 g, kept two per cage under controlled environmental conditions (12 h light/dark cycle and room temperature 24° C.), were used in all experiments. […] The high pressure liquid chromatograph system consisted of a pump (Gilson model 302; Gilson Medical Electronics, […] Bel, France) connected to a manometric module (Gilson model 802 C) and a stainless-steel 5 μm ODS column (Biophase; Bioanalytical Systems, West Lafayette, Ind.) of 25 cm length; samples were injected by means of an automatic sample injector (Gilson model 231) connected to a Gilson dilutor (model 401). […] The detection was carried out electrochemically with a glassy carbon electrode, an Ag/AgCl reference electrode and an amperometric detector (Gilson model 141); the detector cell was operated at 0.75 V. The current produced was monitored using the Gilson 712 HPLC software.

[3] = Levels of L-DOPA in plasma of rats; format: in vivo, rat; conditions: oral, 30 min before L-DOPA 12 mg/kg plus benserazide 3 mg/kg
Method: as §1

[4] = system: LLC-PK1 cells; assay: Apical uptake of L-DOPA in LLC-PK1 cells; format: cell-based, porcine
Method: Cell culture LLC-PK1 cells, a porcine-derived proximal renal tubule epithelial cell line which retains several properties of proximal tubular epithelial cells in culture (Hull, R. N., et al., 1976, In Vitro 12; 670-677), were obtained from the American Type Culture Collection (Rockville, Md.). LLC-PK1 cells (ATCC CRL 1392; passages 198-206) and were maintained in a humidified atmosphere of 5% CO2-95% air at 37° C. and grown in Medium 199 (Sigma Chemical Company, St. Louis, Mo., USA) supplemented with 100 U/ml penicillin G, 0.25 μg/ml amphotericin B, 100 μg/ml streptomycin (Sigma), 3% foetal bovine serum (Sigma) and 25 mM N-2-hydroxyethylpiperazine-N'-2-ethanesulfonic acid (HEPES; Sigma). For subculturing, the cells were dissociated with 0.05% trypsin-EDTA, split 1:4 and subcultured in Costar flasks with 75- or 162-cm^2 growth areas (Costar, Badhoevedorp, The Netherlands). […] The cell medium was changed every 2 days, and the cells reached confluence after 3-5 days of incubation. For 24 hours prior to each experiment, the cell medium was free of foetal bovine serum. […] On the day of the experiment, the growth medium was aspirated and the cells washed with Hanks' medium; thereafter, the cell monolayers were preincubated for 15 min in Hanks' medium at 37° C. The Hanks' medium had the following composition (mM): […] Test substances were applied from the apical side only, and were present during the preincubation and incubation periods. During preincubation and incubation, the cells were continuously shaken and maintained at 37° C.

[5] = target: T2, aromatic L-amino acid decarboxylase (AADC) (Sus scrofa, UniProt P80041); assay: Decarboxylation of L-DOPA (AADC activity) in LLC-PK1 cells; format: cell-based, porcine; conditions: read-out: inhibition of AADC activity IC50
T2 construct: host or cells: LLC-PK1 cells
T2 sequence (P80041 1-486): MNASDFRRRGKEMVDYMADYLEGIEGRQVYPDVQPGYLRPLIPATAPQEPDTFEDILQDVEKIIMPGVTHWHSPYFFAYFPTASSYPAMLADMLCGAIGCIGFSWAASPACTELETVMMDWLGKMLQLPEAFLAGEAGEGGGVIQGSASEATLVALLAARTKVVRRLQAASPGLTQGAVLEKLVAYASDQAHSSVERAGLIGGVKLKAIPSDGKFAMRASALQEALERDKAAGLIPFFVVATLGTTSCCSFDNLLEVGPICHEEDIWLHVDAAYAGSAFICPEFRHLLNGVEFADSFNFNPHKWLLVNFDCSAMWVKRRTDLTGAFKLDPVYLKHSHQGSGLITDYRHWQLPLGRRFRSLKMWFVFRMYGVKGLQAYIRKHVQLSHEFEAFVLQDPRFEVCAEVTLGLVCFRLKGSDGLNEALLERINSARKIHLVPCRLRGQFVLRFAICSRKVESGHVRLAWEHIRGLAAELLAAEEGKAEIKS
Method: On the day of the experiment, the growth medium was aspirated and the cells (LLC-PK1) washed with Hanks' medium; thereafter, the cell monolayers were preincubated for 15 min in Hanks' medium at 37° C. […] The incubation medium also contained pyridoxal phosphate (120 μM), tolcapone (1 μM) and pargyline (100 μM). […] After preincubation, cells were incubated for 6 min in Hanks' medium with 250 μM LDOPA. The reaction was terminated by the addition of 250 μl of […] perchloric acid. The acidified samples were stored at 4° C. before injection into the high pressure liquid chromatograph for the assay of dopamine.
The high pressure liquid chromatograph system consisted of a pump (Gilson model 302; Gilson Medical Electronics, Villiers le Bel, France) connected to a manometric module (Gilson model 802 C) and a stainless-steel 5 μm ODS column (Biophase; Bioanalytical Systems, West Lafayette, Ind.) of 25 cm length; samples were injected by means of an automatic sample injector (Gilson model 231) connected to a Gilson dilutor (model 401). […] The detection was carried out electrochemically with a glassy carbon electrode, an Ag/AgCl reference electrode and an amperometric detector (Gilson model 141); the detector cell was operated at 0.75 V. The current produced was monitored using the Gilson 712 HPLC software.

[6] = brain, R 0.3 mg/kg 30 min before L 12 mg/kg + B 3 mg/kg, 60 min after L + B
[7] = brain, R 1.0 mg/kg 30 min before L 12 mg/kg + B 3 mg/kg, 60 min after L + B
[8] = brain, R 3.0 mg/kg 30 min before L 12 mg/kg + B 3 mg/kg, 60 min after L + B
[9] = brain, R 10.0 mg/kg 30 min before L 12 mg/kg + B 3 mg/kg, 60 min after L + B
[10] = brain, R 30.0 mg/kg 30 min before L 12 mg/kg + B 3 mg/kg, 60 min after L + B
[11] = kidney, R 0.3 mg/kg 30 min before L 12 mg/kg + B 3 mg/kg, 60 min after L + B
[12] = kidney, R 1.0 mg/kg 30 min before L 12 mg/kg + B 3 mg/kg, 60 min after L + B
[13] = kidney, R 3.0 mg/kg 30 min before L 12 mg/kg + B 3 mg/kg, 60 min after L + B
[14] = kidney, R 10.0 mg/kg 30 min before L 12 mg/kg + B 3 mg/kg, 60 min after L + B
[15] = kidney, R 30.0 mg/kg 30 min before L 12 mg/kg + B 3 mg/kg, 60 min after L + B
[16] = brain, L-DOPA 12 mg/kg alone, 60 min

Oc1ccc(C=Cc2cc(O)cc(O)c2)cc1 [resveratrol]
kidney AADC activity reduction ([1]; rat kidney): 38%
liver AADC activity reduction ([1]; rat liver): 48%
DA level [2, 6]: 280.6 ± 36.6 ng/g
DOPAC level [2, 6]: 192.7 ± 13.8 ng/g
HVA level [2, 6]: 3975.5 ± 462.1 ng/g
L-DOPA level [2, 6]: 146.8 ± 14.9 ng/g
DOPAC level [2, 7]: 149.9 ± 15.8 ng/g
HVA level [2, 7]: 3068.6 ± 234.4 ng/g
L-DOPA level [2, 7]: 143.5 ± 29.1 ng/g
DA level [2, 8]: 412.5 ± 79.7 ng/g
DOPAC level [2, 8]: 221.2 ± 33.8 ng/g
HVA level [2, 8]: 3026.5 ± 337.2 ng/g
L-DOPA level [2, 8]: 180.9 ± 26.3 ng/g
DA level [2, 9]: 531.9 ± 41.6 ng/g
DOPAC level [2, 9]: 316.6 ± 20.9 ng/g
HVA level [2, 9]: 2449.5 ± 93.5 ng/g
L-DOPA level [2, 9]: 208.4 ± 21.8 ng/g
DA level [2, 10]: 403.2 ± 99.2 ng/g
DOPAC level [2, 10]: 257.8 ± 51.1 ng/g
HVA level [2, 10]: 3324.8 ± 529.4 ng/g
L-DOPA level [2, 10]: 294.0 ± 52.1 ng/g
DA level [2, 11]: 685.4 + 148.4 ng/g
DOPAC level [2, 11]: 564.2 + 183.0 ng/g
HVA level [2, 11]: 27169.4 ± 2617.0 ng/g
L-DOPA level [2, 11]: 857.4 + 103.3* ng/g
DA level [2, 12]: 622.5 + 61.5* ng/g
DOPAC level [2, 12]: 598.3 + 144.5 ng/g
HVA level [2, 12]: 26254.3 ± 3677.0 ng/g
L-DOPA level [2, 12]: 739.3 + 144.7* ng/g
DA level [2, 13]: 615.0 + 60.8* ng/g
DOPAC level [2, 13]: 420.4 + 33.3* ng/g
HVA level [2, 13]: 29094.8 ± 3342.3 ng/g
L-DOPA level [2, 13]: 1016.2 + 121.5* ng/g
DA level [2, 14]: 710.3 + 67.2* ng/g
DOPAC level [2, 14]: 476.3 + 52.8* ng/g
HVA level [2, 14]: 25779.8 ± 3941.7 ng/g
L-DOPA level [2, 14]: 949.3 + 126.4* ng/g
DA level [2, 15]: 864.4 + 316.1* ng/g
DOPAC level [2, 15]: 731.9 + 427.3 ng/g
HVA level [2, 15]: 27923.6 ± 10686.2 ng/g
L-DOPA level [2, 15]: 1198.6 + 225.1* ng/g
effect on plasma levels of L-DOPA [3]: Increases in plasma levels of L-DOPA

N[C@@H](Cc1ccc(O)c(O)c1)C(=O)O [L-DOPA, L-3,4-dihydroxyphenylalanine, reference compound]
Vmax of L-DOPA apical transporter ([4]; 6 min, 1 to 250 μM substrate): 3069±224 pmol mg protein/6 min
intracellular L-DOPA concentration ([4]; 6 min incubation, medium concentration 0.5 μM): 4.0 ± 0.4 µM
Km ([4]; read-out: Km of L-DOPA apical transporter, 6 min, 1 to 250 μM substrate): 47 ± 8 µM
DA level [2, 16]: 201.0 ± 19.6 ng/g
DOPAC level [2, 16]: 24.3 ± 2.4 ng/g
HVA level [2, 16]: 320.6 ± 37.4 ng/g
L-DOPA level [2, 16]: 9.6 ± 1.0 ng/g
DA level ([2]; kidney, L-DOPA 12 mg/kg alone, 60 min): 120.8 ± 27.5 ng/g

NC1(C(=O)O)CC2CCC1C2 (centres unmarked) [BHC, 2-aminobicyclo(2,2,1)-heptane-2-carboxylic acid]
Vmax for L-DOPA uptake in presence of inhibitor ([4]; 1 mM BHC): 3783±244 pmol/mg protein/6 min
type of inhibitory effect on the accumulation of L-DOPA ([4]; 1 mM BHC): competitive type
IC50 ([4]; Sus scrofa, LLC-PK1, read-out: inhibition of L-DOPA uptake IC50): 407 µM
Km ([4]; read-out: Km for L-DOPA uptake in presence of inhibitor, 1 mM BHC): 130 ± 19 µM

NC(CO)C(=O)NNCc1ccc(O)c(O)c1O (centres unmarked) [benserazide]
IC50 [5]: 0.07 µM

CNC(C)(C)C(=O)O [MeAIB, N-(methylamino)-isobutyric acid]
effect on the uptake of L-DOPA ([4]; LLC-PK1 cells): failed to affect

Source: patent publication US20040242503A1 (priority 2000, published 2004)
